A short description of data set [1]: Solubility of gadolinium chelates in water by HPLC analysis. The data set is classed as physicochemical. The note with it: aqueous solution at 20° C.; for Water solubility of chelate: equilibration by shaking for a few hours. The procedure: The solubility of the gadolinium chelates in table 2 was measured by HPLC analysis of the concentrations of compound in aqueous solutions at 20° C. after equilibration by shaking for a few hours. […] This indicated the saturation point of the solution.

The nature of data set [2]: Measurement of longitudinal relaxivity (T1 by inversion recovery method). It is filed as physicochemical. As for the experimental part: T1 was measured by the inversion recovery method as described by Timothy D. W. Claridge, in “High-Resolution NMR Techniques in Organic Chemistry” Pergamon Amsterdam 1999, 26-30.
Data set [3] can be described thus: Stability of gadolinium chelates, spectrophotometric (UV absorbance vs pH) method. It is filed as physicochemical. The note with it: chelant with 1 equivalent of gadolinium (III); calculated from UV absorbance as a function of pH. The procedure:
Stabilities of the gadolinium complexes of the chelates were measured by a spectrophotometric method using the principle that there is a change in UV absorbance of these compounds as the hydroxyl group on the pyridinone ring deprotonates. There is a significant decrease in the wavelength of the UV maximum as the proton is removed. The UV absorbance of the chelants at different pH's was determined to measure the UV absorbance at different degrees of protonation. The measurements were then repeated in the presence of 1 equivalent of gadolinium (III) and the effect on the UV absorbtion as a function of pH measured. A software program was used to analyze the data and calculate the affinity of the chelates for gadolinium.

For data set [4] the following is noted: Reference 1; cited from earlier work.

On to “Bis aquo tris((3-hydroxy-1-(2-(2-hydroxyethoxy)ethyl)-4-oxo-4H-pyridin-2yl-)carboxyaminoeth-2-yl)amine gadolinium (III) salt [Example 5]”, for which the “Water solubility of chelate” value in data set [1] is <1 mg/mL.

Consider “Bis aquo tris(3-hydroxy-1-(2-methoxyethyl)-4-oxo-4H-pyridin-2yl-)carboxyaminoeth-2-yl)amine gadolinium (III) salt [Example 1e]”, for which the r1 at 10 MHz in data set [2] (10 MHz) was 9.7 mM⁻¹ s⁻¹. The compound also yielded a r1 at 20 MHz in data set [2] (20 MHz) of 11.6 mM⁻¹ s⁻¹. The compound also registered a r1 at 60 MHz in data set [2] (60 MHz) of 9.5 mM⁻¹ s⁻¹. The “Water solubility of chelate” value in data set [1] was <0.5 mg/mL.

With `COCCn1ccc(=O)c(O)c1C(=O)NCC1CC(CNC(=O)c2c(O)c(=O)ccn2CCOC)CC(CNC(=O)c2c(O)c(=O)ccn2CCOC)C1` (stereo not drawn) [Example 3, Cis, cis 1,3,5,tris((3-hydroxy-1-(2-methoxyethyl)-4-oxo-4H-pyrid-2yl-)carboxyaminomethyl)-cyclohexane], in data set [3], the “Gd Chelate STABILITY CONSTANT (LogKGdL)” value was 21.287.

With `COCCn1ccc(=O)c(O)c1C(=O)NCCCC(CCCNC(=O)c1c(O)c(=O)ccn1CCOC)(CCCNC(=O)c1c(O)c(=O)ccn1CCOC)NC(=O)c1ccccc1` [Example 11, Tris((3-hydroxy-1-(2-methoxyethyl)-4-oxo-4H-pyridin-2-yl)-carboxyaminopropyl)-phenylcarboxyaminomethane], the “Gd Chelate STABILITY CONSTANT (LogKGdL)” value in data set [3] was 15.716.

Consider “Bis aquo tris((3-hydroxy-1-(2,3,4-trihydroxybutane)-4-oxo-4H-pyridin-2yl-)carboxyaminoeth-2-yl)amine gadolinium (III) salt [Example 7]”, for which the “Water solubility of chelate (kinetic solubility)” value in data set [1] (kinetic solubility, some compound precipitates on standing) was ~10 mg/ml* *Kinetic solubility, but some compound precipitates on standing.

As to `O=C(NC(CCCNC(=O)c1c(O)c(=O)ccn1CCO)(CCCNC(=O)c1c(O)c(=O)ccn1CCO)CCCNC(=O)c1c(O)c(=O)ccn1CCO)c1ccccc1` [Example 12], the “Gd Chelate STABILITY CONSTANT (LogKGdL)” value in data set [3] was 18.284.

Take `O=C(NCCN(CCNC(=O)c1occc(=O)c1O)CCNC(=O)c1occc(=O)c1O)c1occc(=O)c1O` [Standard, reference compound]: the pGd in data set [4] is 19.27. Moreover, the “Gd Chelate STABILITY CONSTANT (LogKGdL)” value in data set [3] was 18.650.

For the compound “Bis aquo tris((3-hydroxy-1-(2,3-dihydroxypropane)-4-oxo-4H-pyrid-2yl-)carboxyaminoeth-2-yl)-amine gadolinium (III) salt [Example 6]”, the “Water solubility of chelate” value in data set [1] worked out at 3.4 mg/mL.

With “Bis aquo tris((3-hydroxy-1-(2,3,4,5,6-pentahydroxyhexane)-4-oxo-4H-pyridin-2yl-]carboxyaminoeth-2-yl)amine gadolinium (III) [Example 8]”, the “Water solubility of chelate” value in data set [1] was >200 mg/mL.

In the case of “Bis aquo tris(-3-hydroxy-1-(2-hydroxyethyl)-4-oxo-4H-pyridin-2yl-)carboxyaminoeth-2-yl)-amine gadolinium (III) salt [Example 4]”, the “Water solubility of chelate” value in data set [1] is <0.5 mg/mL. Further, the “Gd Chelate STABILITY CONSTANT (LogKGdL)” value in data set [3] is recorded as 17.929.

(Values after patent US8158804B2, “Chelating agents” (GE Healthcare AS, priority 2007, dated 2012).)
